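Method: 48-hour compound exposure of cells in 96-well plates, five concentrations, linear interpolation of endpoints. TGI denotes the concentration required for complete inhibition of growth.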
Legend:
Test in all cases: NCI tumour cell line growth inhibition, 48 h
DMS 114 small cell lung = tested on: DMS 114 small cell lung
SNB-75 CNS = tested on: SNB-75 CNS
HL-60(TB) leukemia = tested on: HL-60(TB) leukemia
NCI/ADR-RES ovarian = tested on: NCI/ADR-RES ovarian
UACC-257 melanoma = tested on: UACC-257 melanoma
HT29 colon = tested on: HT29 colon
HOP-62 NSCLC = tested on: HOP-62 NSCLC
UACC-62 melanoma = tested on: UACC-62 melanoma
P388/ADR leukemia = tested on: P388/ADR leukemia
SN12C renal = tested on: SN12C renal
CAKI-1 renal = tested on: CAKI-1 renal
SNB-19 CNS = tested on: SNB-19 CNS
SN12K1 renal = tested on: SN12K1 renal
COLO 205 colon = tested on: COLO 205 colon
A549 NSCLC = tested on: A549 NSCLC
SNB-78 CNS = tested on: SNB-78 CNS
IGROV1 ovarian = tested on: IGROV1 ovarian
MOLT-4 leukemia = tested on: MOLT-4 leukemia
NCI-H23 lung = tested on: NCI-H23 lung
OVCAR-5 ovarian = tested on: OVCAR-5 ovarian
HCC-2998 colon = tested on: HCC-2998 colon
NCI-H522 lung = tested on: NCI-H522 lung
HOP-92 NSCLC = tested on: HOP-92 NSCLC
UO-31 renal = tested on: UO-31 renal
KM20L2 colon = tested on: KM20L2 colon
CCRF-CEM leukemia = tested on: CCRF-CEM leukemia
OVCAR-8 ovarian = tested on: OVCAR-8 ovarian
RXF 393 renal = tested on: RXF 393 renal
K-562 leukemia = tested on: K-562 leukemia
MALME-3M melanoma = tested on: MALME-3M melanoma
SW-620 colon = tested on: SW-620 colon
SF-539 CNS = tested on: SF-539 CNS
HOP-18 NSCLC = tested on: HOP-18 NSCLC
SF-268 CNS = tested on: SF-268 CNS
EKVX NSCLC = tested on: EKVX NSCLC
DLD-1 colon = tested on: DLD-1 colon
OVCAR-3 ovarian = tested on: OVCAR-3 ovarian
U251 CNS = tested on: U251 CNS
P388 leukemia = tested on: P388 leukemia
DMS 273 small cell lung = tested on: DMS 273 small cell lung
M19-MEL melanoma = tested on: M19-MEL melanoma
KM12 colon = tested on: KM12 colon
NCI-H226 lung = tested on: NCI-H226 lung
NCI-H460 lung = tested on: NCI-H460 lung
HCT-116 colon = tested on: HCT-116 colon
SK-MEL-2 melanoma = tested on: SK-MEL-2 melanoma
RPMI-8226 leukemia = tested on: RPMI-8226 leukemia
MCF7 breast = tested on: MCF7 breast
XF 498 CNS = tested on: XF 498 CNS
SF-295 CNS = tested on: SF-295 CNS
SK-MEL-5 melanoma = tested on: SK-MEL-5 melanoma
SK-MEL-28 melanoma = tested on: SK-MEL-28 melanoma
HCT-15 colon = tested on: HCT-15 colon
A498 renal = tested on: A498 renal
SK-OV-3 ovarian = tested on: SK-OV-3 ovarian
LOX IMVI melanoma = tested on: LOX IMVI melanoma
RXF-631 renal = tested on: RXF-631 renal
M14 melanoma = tested on: M14 melanoma
LXFL 529 NSCLC = tested on: LXFL 529 NSCLC
786-0 renal = tested on: 786-0 renal
SR leukemia = tested on: SR leukemia
ACHN renal = tested on: ACHN renal
TK-10 renal = tested on: TK-10 renal
OVCAR-4 ovarian = tested on: OVCAR-4 ovarian

## Cc1c2cc[n+](Cc3ccc(I)cc3)cc2c(C)c2c1[nH]c1ccccc12
DMS 114 small cell lung
  TGI: 2.63 µM
SNB-75 CNS
  TGI: 1.58 µM
HL-60(TB) leukemia
  TGI: 1.11 µM
NCI/ADR-RES ovarian
  TGI: > 25 µM
UACC-257 melanoma
  TGI: 2.09 µM
HT29 colon
  TGI: > 25 µM
HOP-62 NSCLC
  TGI: > 21.7 µM
UACC-62 melanoma
  TGI: 16.6 µM
P388/ADR leukemia
  TGI: > 25 µM
SN12C renal
  TGI: > 25 µM
CAKI-1 renal
  TGI: 3.51 µM
SNB-19 CNS
  TGI: 9.55 µM
SN12K1 renal
  TGI: 5.92 µM
COLO 205 colon
  TGI: 6.16 µM
A549 NSCLC
  TGI: > 25 µM
SNB-78 CNS
  TGI: > 25 µM
IGROV1 ovarian
  TGI: > 25 µM
MOLT-4 leukemia
  TGI: 1.65 µM
NCI-H23 lung
  TGI: 9.13 µM
OVCAR-5 ovarian
  TGI: 11.3 µM
HCC-2998 colon
  TGI: 5.25 µM
NCI-H522 lung
  TGI: 5.59 µM
HOP-92 NSCLC
  TGI: 3.3 µM
UO-31 renal
  TGI: 15.8 µM
KM20L2 colon
  TGI: > 15.4 µM
CCRF-CEM leukemia
  TGI: 9.51 µM
OVCAR-8 ovarian
  TGI: 11.8 µM
RXF 393 renal
  TGI: > 25 µM
K-562 leukemia
  TGI: 10.7 µM
MALME-3M melanoma
  TGI: 1.81 µM
SW-620 colon
  TGI: > 25 µM
SF-539 CNS
  TGI: > 15.8 µM
HOP-18 NSCLC
  TGI: > 13.2 µM
SF-268 CNS
  TGI: 7.18 µM
EKVX NSCLC
  TGI: 7.85 µM
DLD-1 colon
  TGI: > 25 µM
OVCAR-3 ovarian
  TGI: 3.72 µM
U251 CNS
  TGI: 8.59 µM
P388 leukemia
  TGI: 0.558 µM
DMS 273 small cell lung
  TGI: 6.17 µM
M19-MEL melanoma
  TGI: 1.49 µM
KM12 colon
  TGI: 1.83 µM
NCI-H226 lung
  TGI: 5.27 µM
NCI-H460 lung
  TGI: 1.93 µM
HCT-116 colon
  TGI: > 16.8 µM
SK-MEL-2 melanoma
  TGI: 1.64 µM
RPMI-8226 leukemia
  TGI: 2.4 µM
MCF7 breast
  TGI: 3.06 µM
XF 498 CNS
  TGI: 1.17 µM
SF-295 CNS
  TGI: > 9.98 µM
SK-MEL-5 melanoma
  TGI: 1.33 µM
SK-MEL-28 melanoma
  TGI: 11.7 µM
HCT-15 colon
  TGI: > 25 µM
A498 renal
  TGI: > 25 µM
SK-OV-3 ovarian
  TGI: > 13.5 µM
LOX IMVI melanoma
  TGI: > 25 µM

## CCCC1C[C@H]2CCCCN2[C@H]2CCCN12 (some centres undefined)
DMS 114 small cell lung
  TGI: > 86.9 µM
SNB-75 CNS
  TGI: > 100 µM
HL-60(TB) leukemia
  TGI: > 64 µM
RXF-631 renal
  TGI: > 100 µM
M14 melanoma
  TGI: > 100 µM
UACC-257 melanoma
  TGI: > 100 µM
HT29 colon
  TGI: > 100 µM
HOP-62 NSCLC
  TGI: > 100 µM
UACC-62 melanoma
  TGI: > 100 µM
SN12C renal
  TGI: > 100 µM
CAKI-1 renal
  TGI: > 100 µM
SNB-19 CNS
  TGI: > 100 µM
COLO 205 colon
  TGI: > 83.4 µM
A549 NSCLC
  TGI: > 100 µM
SNB-78 CNS
  TGI: > 100 µM
LXFL 529 NSCLC
  TGI: > 100 µM
IGROV1 ovarian
  TGI: > 100 µM
MOLT-4 leukemia
  TGI: > 100 µM
NCI-H23 lung
  TGI: > 100 µM
OVCAR-5 ovarian
  TGI: > 100 µM
HCC-2998 colon
  TGI: > 100 µM
NCI-H522 lung
  TGI: > 100 µM
HOP-92 NSCLC
  TGI: > 100 µM
UO-31 renal
  TGI: > 100 µM
KM20L2 colon
  TGI: > 100 µM
CCRF-CEM leukemia
  TGI: > 68.6 µM
OVCAR-8 ovarian
  TGI: > 100 µM
RXF 393 renal
  TGI: > 90.1 µM
K-562 leukemia
  TGI: > 88.4 µM
MALME-3M melanoma
  TGI: > 100 µM
786-0 renal
  TGI: > 100 µM
SW-620 colon
  TGI: > 58.4 µM
SR leukemia
  TGI: > 64 µM
SF-539 CNS
  TGI: > 100 µM
HOP-18 NSCLC
  TGI: > 100 µM
SF-268 CNS
  TGI: > 100 µM
EKVX NSCLC
  TGI: > 100 µM
DLD-1 colon
  TGI: > 83.6 µM
OVCAR-3 ovarian
  TGI: > 100 µM
U251 CNS
  TGI: > 68 µM
DMS 273 small cell lung
  TGI: > 100 µM
ACHN renal
  TGI: > 100 µM
TK-10 renal
  TGI: > 100 µM
KM12 colon
  TGI: > 100 µM
NCI-H226 lung
  TGI: > 100 µM
NCI-H460 lung
  TGI: > 100 µM
HCT-116 colon
  TGI: > 66.2 µM
OVCAR-4 ovarian
  TGI: > 100 µM
SK-MEL-2 melanoma
  TGI: > 100 µM
RPMI-8226 leukemia
  TGI: > 63.9 µM
XF 498 CNS
  TGI: > 100 µM
SF-295 CNS
  TGI: > 100 µM
SK-MEL-5 melanoma
  TGI: > 100 µM
SK-MEL-28 melanoma
  TGI: > 100 µM
HCT-15 colon
  TGI: > 75.5 µM
A498 renal
  TGI: > 100 µM
SK-OV-3 ovarian
  TGI: > 100 µM
LOX IMVI melanoma
  TGI: > 55 µM

Reference: PubChem BioAssay (NCI)
